Results published in US20100298141A1, “SUBSTITUTED PYRIDINE N-OXIDE HERBICIDES” (E. I. DU PONT DE NEMOURS AND COMPANY, priority 2007, published 2010).

Key:
[1] = test system: barnyardgrass; assay: Test A pre-/postemergence greenhouse test; type: in vivo, Echinochloa crus-galli; settings: for Barnyardgrass plant response rating: 0 to 100 scale
Procedure, shortened: (§1)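 Greenhouse herbicide screen, pre- and postemergence in parallel. Soil: loam plus sand. Formulation: non-phytotoxic solvent mix with surfactant. Postemergence stage: one to two leaves, 2–10 cm height. Evaluation: visual injury, compared with untreated controls, about 10 days after treatment.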

[2] = test system: crabgrass; assay: Test A pre-/postemergence greenhouse test; type: in vivo, Digitaria sanguinalis; settings: for Crabgrass, Large plant response rating: 0 to 100 scale
Procedure, shortened: as §1

[3] = test system: giant foxtail; assay: Test A pre-/postemergence greenhouse test; type: in vivo, Setaria faberi; settings: for Foxtail, Giant plant response rating: 0 to 100 scale
Procedure, shortened: as §1

[4] = test system: velvetleaf; assay: Test A pre-/postemergence greenhouse test; type: in vivo, Abutilon theophrasti; settings: for Velvetleaf plant response rating: 0 to 100 scale
Procedure, shortened: as §1

[5] = test system: blackgrass; assay: Test C pre-/postemergence test; type: in vivo, Alopecurus myosuroides; settings: for Plant response rating, Blackgrass: scale 0 to 100, 0 no effect, 100 complete control
Procedure, shortened: (§2)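 Test chemicals were formulated with surfactant in a non-phytotoxic solvent and sprayed both on freshly planted seeds (preemergence) and on 1- to 4-leaf plants of 2–18 cm (postemergence). Flooded-paddy pots received compound directly into 3 cm of standing water, maintained for the test.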

[6] = test system: downy brome; assay: Test C pre-/postemergence test; type: in vivo, Bromus tectorum; settings: for Plant response rating, Bromegrass, Downy: scale 0 to 100, 0 no effect, 100 complete control
Procedure, shortened: as §2

[7] = test system: green foxtail; assay: Test C pre-/postemergence test; type: in vivo, Setaria viridis; settings: for Plant response rating, Foxtail, Green: scale 0 to 100, 0 no effect, 100 complete control
Procedure, shortened: as §2

[8] = test system: catchweed bedstraw; assay: Test C pre-/postemergence test; type: in vivo, Galium aparine
From the text: Seeds of plant species selected from blackgrass (Alopecurus myosuroides), downy brome (Bromus tectorum), green foxtail (Setaria viridis), Italian ryegrass (Lolium multiflorum), wheat (Triticum aestivum), wild oat (Avena fatua), catchweed bedstraw (Galium aparine), Russian thistle (Salsola kali), […] (Cynodon dactylon), Surinam grass (Brachiaria decumbens), cocklebur (Xanthium strumarium), corn (Zea mays), crabgrass (Digitaria sanguinalis), woolly cupgrass (Eriochloa villosa), giant foxtail (Setaria faberii), Goosegrass (Eleusin indica), johnsongrass (Sorghum halepense), kochia (Kochia scoparia), lambsquarters (Chenopodium album), morningglory (Ipomoea coccinea), eastern black nightshade (Solanum ptycanthum), yellow nutsedge (Cyperus esculentus), pigweed (Amaranthus retroflexus), common ragweed (Ambrosia elation), soybean (Glycine max), common (oilseed) sunflower (Helianthus annuus), and velvetleaf (Abutilon theophrasti) were planted and treated preemergence with test chemicals formulated in a non-phytotoxic solvent mixture which included a surfactant. At the same time, plants selected from these crop and weed species and also winter barley (Hordeum vulgare), canarygrass (Phalaris minor), and chickweed (Stellaria media) were treated with postemergence applications of some of the test chemicals formulated in the same manner. Plants ranged in height from 2 to 18 cm (1- to 4-leaf stage) for postemergence treatments. […] At time of treatment, test pots were flooded to 3 cm above the soil surface, treated by application of test compounds directly to the paddy water, and then maintained at that water depth for the duration of the test. […] A dash (-) response means no test result.

[9] = test system: Surinam grass; assay: Test C pre-/postemergence test; type: in vivo, Brachiaria decumbens; settings: for Surinam Grass plant response rating: preemergence, scale 0 (no effect) to 100 (complete control); for Plant response rating, Surinam Grass: scale 0 to 100, 0 no effect, 100 complete control
Procedure, shortened: as §2

[10] = test system: woolly cupgrass; assay: Test C pre-/postemergence test; type: in vivo, Eriochloa villosa; settings: for Plant response rating, Cupgrass, Woolly: scale 0 to 100, 0 no effect, 100 complete control
Procedure, shortened: as §2

[11] = test system: lambsquarters; assay: Test C pre-/postemergence test; type: in vivo, Chenopodium album; settings: for Plant response rating, Lambsquarters: scale 0 to 100, 0 no effect, 100 complete control
Procedure, shortened: as §2

[12] = test system: pigweed; assay: Test C pre-/postemergence test; type: in vivo, Amaranthus retroflexus; settings: for Plant response rating, Pigweed: scale 0 to 100, 0 no effect, 100 complete control
Procedure, shortened: as §2

[13] = test system: common ragweed; assay: Test C pre-/postemergence test; type: in vivo, Ambrosia elation; settings: for Plant response rating, Ragweed: scale 0 to 100, 0 no effect, 100 complete control
Procedure, shortened: as §2

[14] = test system: soybean; assay: Test C pre-/postemergence test; type: in vivo, Glycine max; settings: for Soybean plant response rating: preemergence, scale 0 (no effect) to 100 (complete control); for Plant response rating, Soybean: scale 0 to 100, 0 no effect, 100 complete control
Procedure, shortened: as §2

[15] = test system: velvetleaf; assay: Test C pre-/postemergence test; type: in vivo, Abutilon theophrasti; settings: Postemergence; for Plant response rating, Velvetleaf: scale 0 to 100, 0 no effect, 100 complete control
Procedure, shortened: as §2

[16] = test system: barnyardgrass; assay: Test C flooded paddy test; type: in vivo, Echinochloa crus-galli; settings: Flood
Procedure, shortened: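 Greenhouse pots flooded to 3 cm above soil at time of treatment received compound via the water, which stayed at that level.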

[17] = Postemergence, 125 g ai/ha, 0 is no effect, 100 is complete control
[18] = Postemergence, 500 g ai/ha, 0 is no effect, 100 is complete control
[19] = Preemergence, 125 g ai/ha, 0 no effect, 100 complete control
[20] = Preemergence, 500 g ai/ha, 0 to 100 scale where 0 is no effect and 100 is complete control
[21] = 31 g ai/ha, Preemergence, scale 0 to 100
[22] = 62 g ai/ha, preemergence, scale 0 (no effect) to 100 (complete control)
[23] = preemergence, 125 g ai/ha, scale 0 (no effect) to 100 (complete control)

Cc1cc[n+]([O-])c([S+]([O-])Cc2c(C(F)(F)F)nn(C)c2OC(F)F)c1 (centres unmarked) [Compound 1]
Barnyardgrass plant response rating [1, 17]: 80
Barnyardgrass plant response rating [1, 18]: 80
Barnyardgrass plant response rating [1, 19]: 90
Plant response rating, Barnyardgrass [1, 20]: 100
Crabgrass, Large plant response rating [2, 17]: 60
Crabgrass, Large plant response rating [2, 18]: 90
Crabgrass, Large plant response rating [2, 19]: 100
Plant response rating, Crabgrass, Large [2, 20]: 100
Foxtail, Giant plant response rating [3, 17]: 80
Foxtail, Giant plant response rating [3, 18]: 90
Foxtail, Giant plant response rating [3, 19]: 100
Plant response rating, Foxtail, Giant [3, 20]: 100
Velvetleaf plant response rating [4, 17]: 50
Velvetleaf plant response rating [4, 18]: 70
Velvetleaf plant response rating [4, 19]: 30
Plant response rating, Velvetleaf [4, 20]: 100
Blackgrass plant response rating [5, 21]: 70
Blackgrass plant response rating [5, 22]: 100
Plant response rating (0 to 100), Blackgrass ([5]; Postemergence, 31 g ai/ha): 0
Plant response rating, Blackgrass ([5]; Postemergence, 62 g ai/ha): 0
Plant response rating, Blackgrass ([5]; Postemergence, 125 g ai/ha): 0
Plant response rating, Blackgrass ([5]; Postemergence, 250 g ai/ha): 0
Plant response rating (0 to 100), Blackgrass ([5]; Preemergence, 250 g ai/ha): 100
Blackgrass plant response rating [5, 23]: 100
Bromegrass, Downy plant response rating [6, 21]: 0
Bromegrass, Downy plant response rating [6, 22]: 50
Plant response rating (0 to 100), Bromegrass, Downy ([6]; Postemergence, 31 g ai/ha): 0
Plant response rating, Bromegrass, Downy ([6]; Postemergence, 62 g ai/ha): 0
Plant response rating, Bromegrass, Downy ([6]; Postemergence, 125 g ai/ha): 0
Plant response rating, Bromegrass, Downy ([6]; Postemergence, 250 g ai/ha): 0
Plant response rating (0 to 100), Bromegrass, Downy ([6]; Preemergence, 250 g ai/ha): 100
Bromegrass, Downy plant response rating [6, 23]: 100
Foxtail, Green plant response rating [7, 21]: 100
Foxtail, Green plant response rating [7, 22]: 100
Plant response rating (0 to 100), Foxtail, Green ([7]; Postemergence, 31 g ai/ha): 0
Plant response rating, Foxtail, Green ([7]; Postemergence, 62 g ai/ha): 0
Plant response rating, Foxtail, Green ([7]; Postemergence, 125 g ai/ha): 30
Plant response rating, Foxtail, Green ([7]; Postemergence, 250 g ai/ha): 60
Plant response rating (0 to 100), Foxtail, Green ([7]; Preemergence, 250 g ai/ha): 100
Foxtail, Green plant response rating [7, 23]: 100
Galium plant response rating [8, 21]: 70
Galium plant response rating [8, 22]: 85
Plant response rating (0 to 100), Galium ([8]; Preemergence, 250 g ai/ha): 98
Galium plant response rating [8, 23]: 98
Surinam Grass plant response rating ([9]; 62 g ai/ha): 100
Plant response rating (0 to 100), Surinam Grass ([9]; Postemergence, 31 g ai/ha): 0
Plant response rating (0 to 100), Surinam Grass ([9]; Postemergence, 62 g ai/ha): 0
Plant response rating, Surinam Grass ([9]; Postemergence, 125 g ai/ha): 30
Plant response rating, Surinam Grass ([9]; Postemergence, 250 g ai/ha): 60
Plant response rating (0 to 100), Surinam Grass ([9]; Preemergence, 250 g ai/ha): 100
Surinam Grass plant response rating ([9]; 125 g ai/ha): 100
Cupgrass, Woolly plant response rating [10, 21]: 40
Cupgrass, Woolly plant response rating [10, 22]: 60
Plant response rating (0 to 100), Cupgrass, Woolly ([10]; Postemergence, 31 g ai/ha): 0
Plant response rating, Cupgrass, Woolly ([10]; Postemergence, 62 g ai/ha): 0
Plant response rating, Cupgrass, Woolly ([10]; Postemergence, 125 g ai/ha): 40
Plant response rating, Cupgrass, Woolly ([10]; Postemergence, 250 g ai/ha): 70
Plant response rating (0 to 100), Cupgrass, Woolly ([10]; Preemergence, 250 g ai/ha): 90
Cupgrass, Woolly plant response rating [10, 23]: 90
Lambsquarters plant response rating [11, 21]: 100
Lambsquarters plant response rating [11, 22]: 100
Plant response rating (0 to 100), Lambsquarters ([11]; Postemergence, 31 g ai/ha): 0
Plant response rating, Lambsquarters ([11]; Postemergence, 62 g ai/ha): 40
Plant response rating, Lambsquarters ([11]; Postemergence, 125 g ai/ha): 40
Plant response rating, Lambsquarters ([11]; Postemergence, 250 g ai/ha): 70
Plant response rating (0 to 100), Lambsquarters ([11]; Preemergence, 250 g ai/ha): 100
Lambsquarters plant response rating [11, 23]: 100
Pigweed plant response rating [12, 21]: 80
Pigweed plant response rating [12, 22]: 100
Plant response rating (0 to 100), Pigweed ([12]; Postemergence, 31 g ai/ha): 0
Plant response rating (0 to 100), Pigweed ([12]; Postemergence, 62 g ai/ha): 0
Plant response rating, Pigweed ([12]; Postemergence, 125 g ai/ha): 0
Plant response rating, Pigweed ([12]; Postemergence, 250 g ai/ha): 10
Plant response rating (0 to 100), Pigweed ([12]; Preemergence, 250 g ai/ha): 100
Pigweed plant response rating [12, 23]: 100
Ragweed plant response rating [13, 21]: 0
Ragweed plant response rating [13, 22]: 10
Plant response rating (0 to 100), Ragweed ([13]; Postemergence, 31 g ai/ha): 0
Plant response rating (0 to 100), Ragweed ([13]; Postemergence, 62 g ai/ha): 0
Plant response rating, Ragweed ([13]; Postemergence, 125 g ai/ha): 10
Plant response rating, Ragweed ([13]; Postemergence, 250 g ai/ha): 20
Plant response rating (0 to 100), Ragweed ([13]; Preemergence, 250 g ai/ha): 85
Ragweed plant response rating [13, 23]: 85
Soybean plant response rating ([14]; 62 g ai/ha): 100
Plant response rating (0 to 100), Soybean ([14]; Postemergence, 31 g ai/ha): 60
Plant response rating (0 to 100), Soybean ([14]; Postemergence, 62 g ai/ha): 85
Plant response rating, Soybean ([14]; Postemergence, 125 g ai/ha): 85
Plant response rating, Soybean ([14]; Postemergence, 250 g ai/ha): 90
Plant response rating (0 to 100), Soybean ([14]; Preemergence, 250 g ai/ha): 100
Soybean plant response rating ([14]; 125 g ai/ha): 100
Plant response rating (0 to 100), Velvetleaf ([15]; 31 g ai/ha): 10
Plant response rating (0 to 100), Velvetleaf ([15]; 62 g ai/ha): 40
Plant response rating, Velvetleaf ([15]; 125 g ai/ha): 45
Plant response rating, Velvetleaf ([15]; 250 g ai/ha): 60
Plant response rating, Barnyardgrass ([16]; 31 g ai/ha, scale 0 to 100 (0 no effect, 100 complete control)): 0
Plant response rating, Barnyardgrass ([16]; 62 g ai/ha, scale 0 to 100, 0 no effect, 100 complete control, 13 to 15 days): 0
Plant response rating, Barnyardgrass ([16]; 125 g ai/ha, scale 0 to 100, 0 no effect, 100 complete control, 13 to 15 days): 80
Plant response rating, Barnyardgrass ([16]; 250 g ai/ha, scale 0 to 100 (0 no effect, 100 complete control)): 80
